Experimental data: ChEMBL document CHEMBL1129488, “Controlled modification of acidity in cholecystokinin B receptor antagonists: N-(1,4-benzodiazepin-3-yl)-N'-[3-(tetrazol-5-ylamino) phenyl]ureas” (J Med Chem, 1996)

How the values were obtained:
[1] = target: T1, Cholecystokinin receptor type A (Rattus norvegicus, UniProt P30551)
T1 sequence (P30551 whole entry): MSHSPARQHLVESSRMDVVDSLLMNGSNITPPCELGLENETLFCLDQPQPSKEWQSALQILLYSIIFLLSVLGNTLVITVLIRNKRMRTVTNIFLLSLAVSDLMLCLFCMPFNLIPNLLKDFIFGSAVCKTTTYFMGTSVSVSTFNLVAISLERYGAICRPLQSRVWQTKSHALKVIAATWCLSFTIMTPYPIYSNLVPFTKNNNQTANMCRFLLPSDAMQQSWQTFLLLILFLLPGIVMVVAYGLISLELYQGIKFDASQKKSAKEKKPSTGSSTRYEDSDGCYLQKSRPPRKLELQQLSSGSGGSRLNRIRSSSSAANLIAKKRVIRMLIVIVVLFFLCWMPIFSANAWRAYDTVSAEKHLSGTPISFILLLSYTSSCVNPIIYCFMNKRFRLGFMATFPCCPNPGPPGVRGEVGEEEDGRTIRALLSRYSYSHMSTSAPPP
Description: Inhibition of [125 I]BH CCK-8S binding to Cholecystokinin type A receptor in pancreatic tissue

[2] = buffer, pH 0
Description: The solubility is evaluated at a pH 0f 7.4

[3] = pKa value for the compound is determined by potentiometric titration.; format: physicochemical
physchem [4] = assay: physchem
Description: pKa value is evaluated by nonlinear regression analysis of pH-dependent partition measurements.

physchem [5] = conditions: buffer, pH 7.4
Description: Lipophilicity was measured at pH 7.4

[6] = pKa value is evaluated by nonlinear regression analysis of pH-dependent partition measurements; pKa could not be reliably determined due to poor solubility at low pHs; format: physicochemical

| pKa [3] | Compound | IC50 [1] | S [2] | logD (physchem [5]) | further results |
| --- | --- | --- | --- | --- | --- |
|  | Cc1ccc(NC(=O)N[C@@H]2N=C(C3CCCCC3)c3ccccc3N(C)C2=O)cc1N(C)c1nn[nH]n1 | 1.6 µM | 0.49 µg/mL |  |  |
| 4.46 | CN(c1ccc([N+](=O)[O-])cc1)c1nn[nH]n1 |  |  |  |  |
|  | Cc1ccc(NC(=O)N[C@@H]2N=C(C3CCCCC3)c3ccccc3N(C)C2=O)cc1Nc1nn[nH]n1 |  | 57 µg/mL |  |  |
|  | Cc1cccc(NC(=O)N[C@@H]2N=C(c3ccccc3)c3ccccc3N(C)C2=O)c1 [L-365260] |  | < 0.002 µg/mL |  |  |
| 5.02 | Cc1cc([N+](=O)[O-])ccc1N(C)c1nn[nH]n1 |  |  |  |  |
| 4.02 | O=[N+]([O-])c1ccc2c(c1)CCN2c1nn[nH]n1 |  |  |  |  |
|  | CN1C(=O)[C@H](NC(=O)Nc2cccc(N(C)c3nn[nH]n3)c2)N=C(C2CCCCC2)c2ccccc21 |  | 60 µg/mL |  |  |
| 4.46 | Cc1cc([N+](=O)[O-])ccc1Nc1nn[nH]n1 |  |  |  |  |
| 4.23 | O=[N+]([O-])c1ccc(Nc2nn[nH]n2)cc1 |  |  |  |  |
|  | CN1C(=O)[C@H](NC(=O)Nc2ccc3c(c2)N(c2nn[nH]n2)CC3)N=C(c2ccccc2)c2ccccc21 |  | 0.87 µg/mL | 1.38 | pKa (physchem [4]): 4.8 |
|  | CN1C(=O)[C@H](NC(=O)Nc2cccc(Nc3nn[nH]n3)c2)N=C(c2ccccc2)c2ccccc21 | 3 µM | 0.1 µg/mL | 0.89 | pKa (physchem [4]): 5.1 |
|  | CN1C(=O)[C@H](NC(=O)Nc2cccc(CNc3nn[nH]n3)c2)N=C(C2CCCCC2)c2ccccc21 |  | 3.7 µg/mL |  |  |
| 5.53 | O=[N+]([O-])c1ccc(CNc2nn[nH]n2)cc1 |  |  |  |  |
|  | Cc1ccc(NC(=O)N[C@@H]2N=C(c3ccccc3)c3ccccc3N(C)C2=O)cc1Nc1nn[nH]n1 | 3 µM | 0.88 µg/mL | 1.37 | pKa (physchem [4]): 1.37 |
|  | CN1C(=O)[C@H](NC(=O)Nc2cccc(N(C)c3nn[nH]n3)c2)N=C(c2ccccc2)c2ccccc21 | 3 µM | 0.16 µg/mL | 1.14 | pKa [6]: Insoluble |
|  | CN1C(=O)[C@H](NC(=O)Nc2cccc(CNc3nn[nH]n3)c2)N=C(c2ccccc2)c2ccccc21 | 3 µM | 0.02 µg/mL | 1.47 | pKa (physchem [4]): 5.9 |
